This is an account of results in patent US20090137517A1, “SENSITIZING A CELL TO CANCER TREATMENT BY MODULATING THE ACTIVITY OF A NUCLEIC ACID ENCODING RPS27L PROTEIN” (Agency for Science, Technology and Research, priority 2006, published 2009).

What all share (type): cell-based, human
Series [1] deals with p53 and p21. Kind of series: Western blot of p53 and p21 protein levels in HCT116 cells. To be noted: ADR (1 μM), 5-FU (375 μM), nutlin-3 (10 μM). As to the method: (§1) To investigate whether the p53-induced increase in RPS27L mRNA also gives rise to the increased protein levels, immunoblot analysis of p53 wild-type and p53 null HCT116 cells treated with ADR, 5-FU or nutlin-3, a small molecule MDM2 antagonist that directly activates p53 (Vassilev, L. T., Vu, B. T., et al. (2004) “In vivo activation of the p53 pathway by small-molecule antagonists of MDM2” Science, vol. 303, p. 844-848) was performed. […] To extend this observations to other cell lines and to other p53 stimuli, U2OS (human osteosarcoma cell line) and SH-SY5Y (human neuroblastoma cell line) cells (p53 wild type) as well as Saos-2 cells (human osteosarcoma cell line, p53-deficient) were treated with ADR, etoposide phosphate (VP16®) and 5-FU (FIG. 2B). […] Obviously, 5-FU treatment activates a posttranslational mechanism that causes RPS27L protein downregulation in spite of the increased mRNA expression.
(§2) Cells were harvested and lysed with RIPA buffer (50 mM Tris-HCl, pH7.4, 1 mM EDTA, 150 mM NaCl, 1% Nonidet P-40, 0.5% sodium deoxycholate and proteinase inhibitors). The lysates were clarified by centrifugation at 16,000×g for 15 minutes at 4° C. Protein concentrations were determined with the Bradford Protein Assay Kit (Bio-Rad). 20-50 μg protein samples were separated by SDS-PAGE, transferred onto an Immobilon membrane (Millipore) and blotted with antibodies. Anti-p53 and anti-p21 antibodies were from Santa Cruz; anti-MDM2 and anti-Puma antibodies were from Merck. The rabbit polyconal antibody to RPS27L was raised against a 14 amino acid peptide from human RPS27L (SEQ ID NO: 2: LHPSLEEEKKKHKK).
In general terms: In western blotting, separated proteins are transferred to a membrane and probed.

In series [2] the test system is RPS27L protein. Kind of series: Western blot of RPS27L protein in U2OS, SH-SY5Y and Saos-2 cells. To be noted: U2OS and SH-SY5Y (p53 wild type), Saos-2 (p53-deficient); VP16 (10 μM), ADR (1 μM), 5-FU (375 μM). As to the method:
as §1, §2

The test system of series [3] is HCT116 cells. Kind of series: Cell cycle and apoptosis analysis by flow cytometry (sub-G1 DNA content). How it is done:
(§3) Cells cycle analysis was performed by DNA content quantification. The cells were fixed with 70% ethanol and stained with propidium iodide (50 μg/ml) staining. The stained cells were analyzed by FACScalibur (BD Bioscience). For the BrdU incorporation assay and mitochondrial membrane potential detection, the BrdU Flow Kit and JC-1 staining kit (both from BD Bioscience) were used, respectively, following the instruction manual. Stained cells were analyzed by FACScalibur (BD Bioscience) and quantified by using CellQuest software (BD Bioscience).

Series [4] concerns RPS27L mRNA. Kind of series: RT-PCR of RPS27L mRNA after drug treatment of HCT116 cells. To be noted: p53 wild-type HCT116 cells; ADR (1 μM) or 5-FU (375 μM); not in p53 null cells. An excerpt:
FIG. 1A depicts the microarray analysis showing a set of genes whose expression was induced by the DNA damaging agents adriamycin (ADR) and 5-fluorouracil (5-FU) in p53 wild-type HCT116 cells (human colorectal carcinoma cell line containing wild type p53) but not in the p53 null counterpart. In both treatments, RPS27L, together with bona fide p53 targets such as cdkn1a (encodes p21), Pmaid (encodes Noxa) and ccd3 (encodes Puma), was unregulated in a p53-dependent manner. To validate the microarray data, RT-PCR analysis was performed (FIG. 1B).
The human colon carcinoma cell line HCT116 and its p53 knock-out derivate cells were kindly provided by Dr. Bert Vogelstein. HCT116 cells can also be purchased under the ATCC number: CCL 247. The human osteosarcoma cell lines U2OS and Saos-2 can be purchased under the following ATCC numbers: U2OS, ATCC HTB-96; Saos-2, ATCC HTB-85 and SH-SY5Y, ATCC CRL-2266. Cells were grown in DMEM supplemented with 10% fetal bovine serum and penicillin-streptomycin (Invitrogen). Adriamycin, etoposide phosphate (VP16®) and 5-fluorouracil were purchased from Sigma-Aldrich.
(§4) All RT-PCR was performed using the Titanium One Step RT-PCR Kit (BD Clontech).

The subject of series [5] is RPS27L protein. Kind of series: Western blot of RPS27L protein levels in HCT116 cells. Conditions: ADR (1 μM), 5-FU (375 μM), nutlin-3 (10 μM). As to the method: as §1, §2
Series [6] concerns HCT116 cells. Kind of series: γ-H2AX focus formation, immunofluorescence and confocal microscopy. As to the method:
A deficient DNA damage checkpoint is expected to increase DNA damage. γ-H2AX foci are considered to be sensitive indicators of double strand breaks (DSB). We looked for γ-H2AX focus formation after etoposide phosphate (VP16®) treatment and monitored the reversibility post-VP16 washout.
The cells were seeded in 4-well or 8-well culture slides. After treatment, cells were fixed with 3.7% paraformaldehyde in PBS and permeabilized with 0.2% Triton-X100. Cells were sequentially incubated with primary antibodies (see above under “Protein Analysis and Generation of Anti-RPS27L Antibody”) and Alexa Fluor 488 or Alexa Fluor 546-conjugated secondary antibodies (Invitrogen) for 1 hour each and mounted in Fluorsave (Merck) mounting medium. DRAQ5 (Biostats, UK) was diluted in mounting medium for nuclear staining. The stained cells were examined by Zeiss LSM510 confocal microscopy.

Series [7] concerns HCT116 cells. Kind of series: JC-1 staining, mitochondrial membrane potential by flow cytometry. To be noted: RPS27L shRNA HCT116 cells, ADR treatment. As to the method:
To further define the nature of this cell death response the inventors used another assay, namely flow cytometric detection of cells stained with JC-1. The JC-1-staining identifies cell death events as a result of loss of mitochondria membrane potential (ΔΨm).
as §3
For orientation: A flow cytometer gives signals particle by particle.

Series [8] deals with RPS27L. Kind of series: RPS27L gene silencing by RNA interference, RT-PCR. Conditions: HCT116 cells transfected with siRNA, then VP16 (10 μM). As to the method: (§5) The siRNA oligo targeting RPS27L (SEQ ID NO: 1: ggttgctacaagattacta was purchased from Proligo, and transfection was conducted using Lipofectamine 2000 (Invitrogen) according to the manufacturer's information. To generate stable knock-down cell lines, the siRNA sequences were cloned into the pSIREN-RetroQ retroviral expression vector (BD Bioscience) according to the manufacturer's instruction. Virally infected cells were selected in a medium containing 2 μg/ml puromycin and individual drug-resistant clones were collected, pooled and expanded.
as §4

Series [9] concerns RPS27. Kind of series: Specificity of RPS27L siRNA, RT-PCR of RPS27. To be noted: HCT116 cells transfected with siRNA, then VP16 (10 μM). As to the method: as §5, §4

For `O=c1[nH]cc(F)c(=O)[nH]1` [5-FU, 5-fluorouracil], the “p53 and p21 protein” value in [1] is listed as “increased p21 protein expression”. Besides, the values for the RPS27L protein level entry in [2] and in [5] were “downregulation” and “downregulated”, respectively. Also, in series [3] (HCT116 p53+/+ and p53−/−, ADR (1 μM) or 5-FU (375 μM) for 48 h), the “cell cycle and apoptosis response” value was “p53-dependent apoptosis”. In series [4], the “RPS27L mRNA” value is on record as “induced”.

As for `COc1cc([C@@H]2c3cc4c(cc3[C@@H](O[C@@H]3O[C@@H]5CO[C@@H](C)O[C@H]5[C@H](O)[C@H]3O)[C@H]3COC(=O)[C@H]23)OCO4)cc(OC)c1OP(=O)(O)O` [etoposide phosphate (VP16®), etoposide phosphate], the RPS27L protein level result in [2] is “p53-dependent upregulation of RPS27L protein”. The “DSB foci (γ-H2AX staining) after treatment” value in [6] (HCT116 cells, VP16 (20 μM)) is “prominent DSB foci”. Further, the “γ-H2AX staining after VP16 removal” value in [6] (RPS27L-depleted HCT116 cells, after VP16 removal) is on record as “sustained γ-H2AX staining”; in [6] (control HCT116 cells, by 16 hours after VP16 removal), “almost undetectable”.

With `COc1ccc(C2=N[C@@H](c3ccc(Cl)cc3)[C@@H](c3ccc(Cl)cc3)N2C(=O)N2CCNC(=O)C2)c(OC(C)C)c1` [nutlin-3], the “p53 and p21 protein” value in series [1] is “accumulation of p53 and p21”. Moreover, the RPS27L protein level entry in series [5] was “increased RPS27L protein levels”.

In the case of “RPS27L shRNA: short hairpin of SEQ ID NO: 1 to deplete RPS27L, stably expressed in HCT116 from pSIREN-RetroQ retroviral vector (guide GGTTGCTACAAGATTACTA)”, the “percentage of cells with lower membrane potential (ΔΨm)” value in series [7] came out at 33.5%. Also, the “cell death (sub-G1 DNA content)” value in series [3] (p53 wild-type HCT116 stably expressing RPS27L shRNA, ADR (1 μM) 48 h) was “marked cell death”.

On to “RPS27L siRNA: siRNA oligo targeting RPS27L, SEQ ID NO: 1: ggttgctacaagattacta, purchased from Proligo (GGTTGCTACAAGATTACTA; listed as DNA, chemistry not given here)”, for which the “RPS27L expression (mRNA)” value in series [8] was “nearly completely ablated”. The “cell death (sub-G1 DNA content)” value in series [3] (HCT116 cells, transient siRNA transfection, then ADR (1 μM) 24 h) is on record as “marked increase in cell death”; in [3] (HCT116 cells, transient siRNA transfection, then etoposide phosphate (VP16) (10 μM) 24 h), “marked increase in cell death”; in series [3] (p53 null HCT116 cells, transient siRNA transfection, then ADR or VP16), “not in p53 null counterparts”. For the same molecule, in series [9], the “effect on closely-related RPS27 (mRNA)” value was “no effect”.
